Results from US8093275B2, “Oxazolone and pyrrolidinone-substituted pryidine amides as P2X3 and P2X2/3 antagonists” (Roche Palo Alto LLC, priority 2009, dated 2012).

Assays:
rat P2X3 receptor = target: T1, rat P2X3 receptor (Rattus norvegicus, UniProt P49654); assay: P2X3 FLIPR (Fluorometric Imaging Plate Reader) assay; format: cell-based; conditions: CHO-K1 cells transfected with rat P2X3; agonist α,β-meATP 1 μM; FLIPR calcium fluorescence; read-out: pKi P2X3 (converted)
T1 construct: expressed in transfected cells; host or cells: CHO-K1
T1 sequence (P49654 1-397): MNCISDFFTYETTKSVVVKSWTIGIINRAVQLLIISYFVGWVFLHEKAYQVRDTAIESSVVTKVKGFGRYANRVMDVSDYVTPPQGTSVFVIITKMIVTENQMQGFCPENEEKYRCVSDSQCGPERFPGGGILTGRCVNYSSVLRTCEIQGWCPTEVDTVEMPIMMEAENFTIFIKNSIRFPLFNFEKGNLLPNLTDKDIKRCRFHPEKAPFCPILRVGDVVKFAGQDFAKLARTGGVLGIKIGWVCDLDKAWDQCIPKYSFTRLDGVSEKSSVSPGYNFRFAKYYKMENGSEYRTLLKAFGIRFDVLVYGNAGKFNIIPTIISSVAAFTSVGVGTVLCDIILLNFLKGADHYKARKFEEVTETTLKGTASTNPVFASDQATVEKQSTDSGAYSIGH
Description: (§1) CHO-K1 cells were transfected with cloned rat P2X3 or human P2X2/3 receptor subunits and passaged in flasks. 18-24 hours before the FLIPR experiment, cells were released from their flasks, centrifuged, and resuspended in nutrient medium at 2.5×10^5 cells/ml. The cells were aliquoted into black-walled 96-well plates at a density of 50,000 cells/well and incubated overnight in 5% CO2 at 37° C. On the day of the experiment, cells were washed in FLIPR buffer (calcium- and magnesium-free Hank's balanced salt solution, 10 mM HEPES, 2 mM CaCl2, 2.5 mM probenecid; FB). Each well received 100 μl FB and 100 μl of the fluorescent dye Fluo-3 AM [2 μM final conc.]. After a 1 hour dye loading incubation at 37° C., the cells were washed 4 times with FB, and a final 75 μl/well FB was left in each well.
(§2) Test compounds (dissolved in DMSO at 10 mM and serially diluted with FB) or vehicle were added to each well (25 μl of a 4× solution) and allowed to equilibrate for 20 minutes at room temperature. The plates were then placed in the FLIPR and a baseline fluorescence measurement (excitation at 488 nm and emission at 510-570 nm) was obtained for 10 seconds before a 100 μl/well agonist or vehicle addition. The agonist was a 2× solution of α,β-meATP producing a final concentration of 1 μM (P2X3) or 5 μM (P2X2/3). Fluorescence was measured for an additional 2 minutes at 1 second intervals after agonist addition. A final addition of ionomycin (5 μM, final concentration) was made to each well of the FLIPR test plate to establish cell viability and maximum fluorescence of dye-bound cytosolic calcium. Peak fluorescence in response to the addition of α,β-meATP (in the absence and presence of test compounds) was measured and inhibition curves generated using nonlinear regression. PPADS, a standard P2X antagonist, was used as a positive control.

human P2X2/3 receptor = target: T2, human P2X2/3 receptor (Homo sapiens, UniProt P56373+Q9UBL9); assay: P2X2/3 FLIPR (Fluorometric Imaging Plate Reader) assay; format: cell-based; conditions: CHO-K1 cells transfected with human P2X2/3; agonist α,β-meATP 5 μM; FLIPR calcium fluorescence; read-out: pKi P2X2/3 (converted)
T2 construct: expressed in transfected cells; host or cells: CHO-K1
T2 sequence (Q9UBL9 1-471): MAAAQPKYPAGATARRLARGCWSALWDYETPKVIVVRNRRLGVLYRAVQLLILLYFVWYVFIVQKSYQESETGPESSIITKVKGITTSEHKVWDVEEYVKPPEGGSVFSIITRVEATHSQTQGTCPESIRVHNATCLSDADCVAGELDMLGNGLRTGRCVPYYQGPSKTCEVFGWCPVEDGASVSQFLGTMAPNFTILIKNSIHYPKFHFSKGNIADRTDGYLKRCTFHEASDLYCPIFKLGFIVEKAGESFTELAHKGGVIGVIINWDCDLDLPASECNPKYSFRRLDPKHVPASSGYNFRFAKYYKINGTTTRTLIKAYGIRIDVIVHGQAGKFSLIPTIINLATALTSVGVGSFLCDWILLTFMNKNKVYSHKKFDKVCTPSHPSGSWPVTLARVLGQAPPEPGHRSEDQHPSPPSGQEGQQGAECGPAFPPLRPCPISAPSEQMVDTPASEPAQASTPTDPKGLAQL
T2 sequence (P56373 1-397): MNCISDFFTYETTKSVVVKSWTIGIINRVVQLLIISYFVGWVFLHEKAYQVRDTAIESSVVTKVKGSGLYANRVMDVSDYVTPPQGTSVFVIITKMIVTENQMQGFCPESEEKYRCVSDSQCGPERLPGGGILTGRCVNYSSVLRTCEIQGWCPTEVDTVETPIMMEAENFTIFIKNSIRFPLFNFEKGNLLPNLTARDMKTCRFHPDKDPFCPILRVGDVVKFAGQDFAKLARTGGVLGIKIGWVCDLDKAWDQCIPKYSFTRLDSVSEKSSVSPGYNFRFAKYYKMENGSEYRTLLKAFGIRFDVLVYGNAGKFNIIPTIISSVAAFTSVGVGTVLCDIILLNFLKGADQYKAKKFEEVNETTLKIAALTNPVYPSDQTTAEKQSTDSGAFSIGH
Description: as §1, §2

Row | Ki (rat P2X3 receptor) | Ki (human P2X2/3 receptor) | Compound
1 | 4.27 nM | 66.1 nM | CCC1COC(=O)N1c1cc(C(=O)NCc2cnc(C)cn2)cc(-c2ccc(C)cn2)c1 (centres unmarked) [Compound 19, 3-(4-Ethyl-2-oxo-oxazolidin-3-yl)-N-(5-methyl-pyrazin-2-ylmethyl)-5-(5-methyl-pyridin-2-yl)-benzamide]
2 | 7.76 nM | 21.4 nM | Cc1ccc(-c2cc(C(=O)NCc3ccc(C)nn3)cc(-n3c(=O)oc4ccccc43)c2)nc1 [Compound 13, N-(6-Methyl-pyridazin-3-ylmethyl)-3-(5-methyl-pyridin-2-yl)-5-(2-oxo-benzooxazol-3-yl)-benzamide]
3 | 12.6 nM | 44.7 nM | Cc1ccc(-c2cc(C(=O)NC(C)c3cnccn3)cc(N3C(=O)OC[C@H]3C(C)C)c2)c(F)c1 (stereo partly drawn) [Compound 47, 2′-Fluoro-5-((R)-4-isopropyl-2-oxo-oxazolidin-3-yl)-4′-methyl-biphenyl-3-carboxylic acid (1-pyrazin-2-yl-ethyl)-amide]
4 | 38.9 nM | 7760 nM | Cc1ccc(-c2cc(C(=O)NC(C)c3cnccn3)cc(N3C(=O)CCC3C)c2)nc1 (centres unmarked) [Compound 27, 3-(2-Methyl-5-oxo-pyrrolidin-1-yl)-5-(5-methyl-pyridin-2-yl)-N-(1-pyrazin-2-yl-ethyl)-benzamide]
5 | 7.24 nM | 123 nM | Cc1ccc(-c2cc(C(=O)NCc3cnc(C)cn3)cc(N3C(=O)Cc4ccccc43)c2)cc1 [Compound 53, 4′-Methyl-5-(2-oxo-2,3-dihydro-indol-1-yl)-biphenyl-3-carboxylic acid (5-methyl-pyrazin-2-ylmethyl)-amide]
6 | 12.3 nM | 26.3 nM | Cc1ccc(-c2cc(C(=O)NC(C)c3cnccn3)cc(-n3c(=O)oc4ccccc43)c2)cc1 (centres unmarked) [Compound 50, 4′-Methyl-5-(2-oxo-benzooxazol-3-yl)-biphenyl-3-carboxylic acid (1-pyrazin-2-yl-ethyl)-amide]
7 | 2.69 nM | 132 nM | Cc1ccc(-c2cc(C(=O)NC3CC3)cc(N3C(=O)OC[C@H]3C(C)C)c2)nc1 [Compound 8, N-Cyclopropyl-3-((R)-4-isopropyl-2-oxo-oxazolidin-3-yl)-5-(5-methyl-pyridin-2-yl)-benzamide]
8 | 7.59 nM | 339 nM | CCC1COC(=O)N1c1cc(C(=O)NC(C)c2cnccn2)cc(-c2ccc(C)cn2)c1 (centres unmarked) [Compound 18, 3-(4-Ethyl-2-oxo-oxazolidin-3-yl)-5-(5-methyl-pyridin-2-yl)-N-(1-pyrazin-2-yl-ethyl)-benzamide]
9 | 6.03 nM | 141 nM | Cc1ccc(-c2cc(C(=O)NCc3cncnc3)cc(-n3c(=O)oc4ccccc43)c2)nc1 [Compound 12, 3-(5-Methyl-pyridin-2-yl)-5-(2-oxo-benzooxazol-3-yl)-N-pyrimidin-5-ylmethyl-benzamide]
10 | 30.2 nM | 2040 nM | Cc1ccc(-c2cc(C(=O)NCc3cnc(C)cn3)cc(N3C(=O)CCC3C)c2)nc1 (centres unmarked) [Compound 28, 3-(2-Methyl-5-oxo-pyrrolidin-1-yl)-N-(5-methyl-pyrazin-2-ylmethyl)-5-(5-methyl-pyridin-2-yl)-benzamide]
11 | 20 nM | 112 nM | Cc1ccc(-c2cc(C(=O)NC(C)c3cnccn3)cc(N3C(=O)Cc4ccccc43)c2)cc1 (centres unmarked) [Compound 54, 4′-Methyl-5-(2-oxo-2,3-dihydro-indol-1-yl)-biphenyl-3-carboxylic acid (1-pyrazin-2-yl-ethyl)-amide]
12 | 3.31 nM | 234 nM | Cc1ccc(-c2cc(C(=O)N[C@@H](C)CO)cc(-n3c(=O)oc4ccccc43)c2)nc1 [Compound 3, N-((S)-2-Hydroxy-l-methyl-ethyl)-3-(5-methyl-pyridin-2-yl)-5-(2-oxo-benzooxazol-3-yl)-benzamide]
13 | 3.98 nM | 20.4 nM | Cc1ccc(-c2cc(C(=O)NCc3cnc(C)cn3)cc(N3C(=O)OC[C@H]3C(C)C)c2)nc1 [Compound 11, 3-((R)-4-Isopropyl-2-oxo-oxazolidin-3-yl)-N-(5-methyl-pyrazin-2-ylmethyl)-5-(5-methyl-pyridin-2-yl)-benzamide]
14 | 6.31 nM | 123 nM | Cc1ccc(-c2cc(C(=O)NC(C)c3cnccn3)cc(N3C(=O)OCC3(C)C)c2)nc1 (centres unmarked) [Compound 20, 3-(4,4-Dimethyl-2-oxo-oxazolidin-3-yl)-5-(5-methyl-pyridin-2-yl)-N-(1-pyrazin-2-yl-ethyl)-benzamide]
15 | 9.33 nM | 38 nM | Cc1ccc(-c2cc(C(=O)NC(C)c3cnccn3)cc(N3C(=O)OC[C@H]3C(C)C)c2)cc1 (stereo partly drawn) [Compound 39, 5-((R)-4-Isopropyl-2-oxo-oxazolidin-3-yl)-4′-methyl-biphenyl-3-carboxylic acid (1-pyrazin-2-yl-ethyl)-amide]
16 | 3.98 nM | 83.2 nM | Cc1ccc(-c2cc(C(=O)NC3CC3)cc(N3C(=O)OC[C@H]3C(C)C)c2)cc1 [Compound 41, 5-((R)-4-Isopropyl-2-oxo-oxazolidin-3-yl)-4′-methyl-biphenyl-3-carboxylic acid cyclopropylamide]
